Where two headings read alike, the source gives them in different places.
How the values were obtained:
Hsp90 = Hsp90 Binding Assay (fluorescence polarization, cy3B-GM displacement, SKBr3 lysate); set-up: species or system human; conditions: read-out: SKBr3 Binding Affinity
hERG = hERG (Homo sapiens, UniProt Q12809); test: hERG binding
Description: In interpreting these test results, it will be appreciated that binding to Hsp90 for activity in the treatment of cancer or neurodegenerative disorders is desirable. In contrast, it is generally undesirable to have binding to hERG since binding to hERG can result in undesirable cardiac side effects. Therefore, having a low value for binding to Hsp90 and a high value for binding to hERG is desirable, bearing in mind that the units for the two measurement are different.

[1] = human cancer cell lysate (SKBr3), cy3B-GM displacement, 4° C., 24 h

hERG, sequence (Q12809 whole entry): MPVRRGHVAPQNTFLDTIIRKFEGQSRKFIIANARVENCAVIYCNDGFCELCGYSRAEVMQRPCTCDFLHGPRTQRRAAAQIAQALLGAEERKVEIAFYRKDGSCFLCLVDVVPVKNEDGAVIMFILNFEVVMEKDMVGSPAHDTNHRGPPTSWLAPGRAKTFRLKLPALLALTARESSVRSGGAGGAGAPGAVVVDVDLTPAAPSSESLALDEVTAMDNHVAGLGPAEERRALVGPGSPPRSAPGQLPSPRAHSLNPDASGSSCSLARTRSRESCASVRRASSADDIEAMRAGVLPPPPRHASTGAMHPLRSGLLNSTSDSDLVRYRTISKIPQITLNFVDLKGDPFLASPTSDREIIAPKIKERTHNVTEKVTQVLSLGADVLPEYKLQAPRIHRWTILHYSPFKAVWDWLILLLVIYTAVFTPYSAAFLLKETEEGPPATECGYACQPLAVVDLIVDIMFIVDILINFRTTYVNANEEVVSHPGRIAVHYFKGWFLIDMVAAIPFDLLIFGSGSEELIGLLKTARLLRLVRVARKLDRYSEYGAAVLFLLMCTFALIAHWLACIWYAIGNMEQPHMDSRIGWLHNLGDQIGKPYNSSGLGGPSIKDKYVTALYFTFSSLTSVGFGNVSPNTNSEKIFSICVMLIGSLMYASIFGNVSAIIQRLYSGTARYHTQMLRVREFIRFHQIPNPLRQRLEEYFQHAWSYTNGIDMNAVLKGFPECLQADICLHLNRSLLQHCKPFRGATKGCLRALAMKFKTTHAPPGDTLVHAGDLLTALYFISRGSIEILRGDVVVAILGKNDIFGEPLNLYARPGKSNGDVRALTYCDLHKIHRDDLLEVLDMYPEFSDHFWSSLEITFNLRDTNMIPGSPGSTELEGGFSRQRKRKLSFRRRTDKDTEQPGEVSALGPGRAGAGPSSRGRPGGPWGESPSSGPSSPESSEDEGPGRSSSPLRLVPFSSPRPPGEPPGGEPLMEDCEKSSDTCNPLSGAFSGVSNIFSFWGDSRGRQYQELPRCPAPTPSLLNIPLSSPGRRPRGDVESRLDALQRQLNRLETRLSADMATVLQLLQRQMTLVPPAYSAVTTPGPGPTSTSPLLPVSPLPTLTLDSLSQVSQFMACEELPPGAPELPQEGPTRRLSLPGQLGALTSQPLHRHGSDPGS

Row | IC50 (Hsp90; [1]) [nM] | SMILES | hERG binding (hERG) [µM] | IC50 (Hsp90) [nM]
1 | 45.4 | CN(C)c1cc2c(cc1Sc1nc3c(N)ncnc3n1CCCNC(C)(C)C)OCO2 [DZ4-135, 9-(3-(tert-Butylamino)propyl)-8-(6-(dimethylamino)benzo[d][1,3]dioxol-5-ylthio)-9H-purin-6-amine] | 14.0 | 
2 |  | CC(C)NCCCn1c(Sc2cc3c(cc2I)OCO3)nc2c(N)ncnc21 [PU-H71, reference compound] | 1 | […]
3 | 55.3 | CC(C)NCCCn1c(Sc2cc3c(cc2N(C)C)OCO3)nc2c(N)ncnc21 [DZ4-134, 8-(6-(Dimethylamino)benzo[d][1,3]dioxol-5-ylthio)-9-(3-(isopropylamine)propyl)-9H-purin-6-amine] | 11.0 | 

Source: US10064867B2, “Hsp90 inhibitors” (Sloan-Kettering Institute for Cancer Research, priority 2011, dated 2018)
